≈ marks a conversion by molar mass, not a printed value. Like-named read-outs stand apart in the source and are kept apart here.
How the values were obtained:
[1] = test system: phospho-Ser473-AKT in BxPC-3; test: Cellular AKT inhibition, Western blot phospho-Ser473-AKT, BxPC-3 cells; type: cell-based, human; details: for inhibition at 10 µM: Homo sapiens
[2] = test system: Panc-1 and MiaPaCa-2 pancreatic cancer cells; test: Cell viability assay (Table 3); details: for cytotoxicity: either cell line tested (Panc-1, MiaPaCa-2); for Cell viability (IC50): viability assay, cell line not given, N/I = no inhibition at the highest concentration tested
[3] = test system: phospho-Ser473-AKT in MiaPaCa-2 cells; test: Cellular AKT inhibition, Western blot phospho-Ser473-AKT, MiaPaCa-2 cells; details: read-out: pAKT inhibition (IC50)
HT-29 cells [4] = test: Cell survival / cytotoxicity, MTT assay, HT-29 cells; type: cell-based, human
[5] = test system: phospho-Ser473-AKT in Panc-1 cells; test: Cellular AKT inhibition, Western blot phospho-Ser473-AKT, Panc-1 cells
Solubility = type: physicochemical
[6] = test system: phospho-Ser473 AKT in NIH3T3 cells; test: Cellular AKT inhibition, phospho-Ser473 AKT, NIH3T3 cells; type: cell-based; details: mouse NIH3T3, phospho-Ser473 AKT
Description: (§1) AKT activity was measured by Western blotting using anti-[…] AKT antibody. Downstream targets of AKT were detected also by Western blotting using specific anti-phospho antibodies and anti-actin was used as a loading control.

[7] = test system: phospho-Ser473-AKT in HT-29 cells; test: Cellular AKT inhibition, Western blot phospho-Ser473-AKT, HT-29 cells; type: cell-based; details: human HT-29 colon cancer cells
Description: (§2) AKT inhibition leads to cellular apoptosis.
as §1

[8] = test system: Panc-1 pancreatic cell line; test: Apoptosis, morphological assay, Panc-1 cells; type: cell-based, human; details: Panc-1, morphological assay
Excerpt: as §2

[9] = test system: MiaPaca-2 pancreatic cell line; test: Apoptosis, morphological assay, MiaPaCa-2 cells; type: cell-based, human; details: MiaPaca-2, morphological assay
Excerpt: as §2

HT-29 cells [10] = test: Metabolic stability under cell culture conditions (incubation with HT-29 cells); type: in vitro ADME, human; details: incubating with HT-29 cells at maximum DMEM concentration at 37° C.
Excerpt: Compound 6 was too insoluble to obtain data.

[11] = BxPC-3, Western blots phospho-Ser473-AKT, 10 μM, NI = not inhibitory, read-out: % pAKT Inhibition, At 10 μM
[12] = Western blotting, phospho-Ser473-AKT, MiaPaCa-2 cells, N/I = no inhibition at the highest concentration tested
[13] = MTT assay, read-out: Cell survival (IC50)
[14] = BXPC-3, read-out: % pAKT Inhibition, At 10 μM

Compound: Nc1ccc(S(=O)(=O)Nc2nnc(CO)s2)cc1 [Compound 125, 4-Amino-N-(5-(hydroxymethyl)-1,3,4-thiadiazol-2-yl)benzenesulfonamide]
- inhibition at 10 µM [1, 11]: 10%

Compound: CCCCCCCCCCCCCCc1ccc(S(=O)(=O)Nc2nncs2)cc1 [Compound 156, 4-Tetradecyl-N-(1,3,4-thiadiazol-2-yl)benzenesulfonamide]
- inhibition at 10 µM [1, 11]: 70%

Compound: CC(C)(C)c1nnc(NS(=O)(=O)c2ccc(N)cc2)s1 [Compound 113, 4-Amino-N-(5-tert-butyl-1,3,4-thiadiazol-2-yl)benzenesulfonamide]
- inhibition at 10 µM [1, 11]: 13%

Compound: Cc1nnc(NS(=O)(=O)c2ccc(NS(=O)(=O)c3ccc4ccccc4c3)cc2)s1 [Compound 455]
- cytotoxicity [2]: did not exhibit cytotoxicity
- Cell viability (IC50) [2]: N/I

Compound: O=C(Nc1ccccc1)c1ccccc1NC(=O)c1ccccc1C(=O)O [Compound 439]
- IC50 [3, 12]: 50 µM
- Cell viability (IC50) [2]: N/I

Compound: COc1cc(NS(=O)(=O)c2ccc(NC(=O)c3ccco3)cc2)nc(OC)n1 [Compound 445]
- IC50 [3, 12]: 50 µM
- Cell viability (IC50) [2]: N/I

Compound: CCOc1ccccc1C(=O)Nc1ccccc1C(=O)O [Compound 441]
- IC50 [3, 12]: 25 µM
- Cell viability (IC50) [2]: N/I

Compound: CCCCCCCCCCCCc1ccc(S(=O)(=O)Nc2nnc(C)s2)cc1 [Compound 108, 4-Dodecyl-N-(5-methyl-1,3,4-thiadiazol-2-yl)benzenesulfonamide]
- inhibition at 10 µM [1, 11]: 64%

Compound: CC(=O)Nc1ccc(S(=O)(=O)Nc2nnc(CC(=O)O)s2)cc1 [Compound 118, 2-(5-(4-Acetamidophenylsulfonamido)-1,3,4-thiadiazol-2-yl)acetic Acid]
- inhibition at 10 µM [1, 11]: 19%

Compound: CCCCCCCCCCCCc1ccc(S(=O)(=O)Nc2nnc(C(C)(C)C)s2)cc1 [Compound 116, N-(5-tert-Butyl-1,3,4-thiadiazol-2-yl)-4-dodecylbenzenesulfonamide]
- inhibition at 10 µM [1, 11]: 36%

Compound: NS(=O)(=O)c1nnc(NS(=O)(=O)c2cccc3cccnc23)s1 [Compound 345]
- IC50 (HT-29 cells [4]; [13]): > 100 µM

Compound: CCCCCCCCc1ccc(S(=O)(=O)Nc2nncs2)cc1 [Compound 153, 4-Octyl-N-(1,3,4-thiadiazol-2-yl)benzenesulfonamide]
- inhibition at 10 µM [1, 11]: 10%

Compound: COc1cc(NS(=O)(=O)c2ccc(NC(C)=O)cc2)nc(OC)n1 [Compound 450]
- IC50 [3, 12]: 50 µM
- Cell viability (IC50) [2]: N/I

Compound: CCCCCCCCCC(=O)Nc1ccc(S(=O)(=O)Nc2nncs2)cc1 [Compound 101, N-(4-(N-1,3,4-Thiadiazol-2-ylsulfamoyl)phenyl)decanamide]
- IC50 ([5]; Homo sapiens, PANC-1, read-out: pAKT inhibition (IC50)): 10 µM

Compound: CCc1nnc(NS(=O)(=O)c2ccc(NC(C)=O)cc2)s1 [Compound 110, N-(4-(N-(5-Ethyl-1,3,4-thiadizol-2-yl)sulfamoyl)phenyl)acetamide]
- % pAKT Inhibition, At 10 μM ([1]; BxPC-3, Western blots phospho-Ser473-AKT, 10 μM, NI = not inhibitory): 45%

Compound: CC1=NN(C(=O)c2ccc(Cl)cc2)C(O)C1/N=N/c1ccc(S(=O)(=O)Nc2ncccn2)cc1 (stereo not drawn) [Compound 335]
- Solubility (Solubility): <0.1 µM
- IC50 [6]: 3 µM
- IC50 [7]: 5 µM

Compound: CCCCCCCCCC(=O)Nc1ccc(S(=O)(=O)Nc2nnc(CC(=O)O)s2)cc1 [Compound 119, 2-(5-(4-Decanamidophenylsulfonamido)-1,3,4-thiadiazol-2-yl)acetic Acid]
- inhibition at 10 µM [1, 11]: 42%

Compound: Cc1nnc(NS(=O)(=O)c2ccc(N)cc2)s1 [Compound 105, 4-Amino-N-(5-methyl-1,3,4-thiadiazol-2-yl)benzenesulfonamide]
- inhibition at 10 µM [1, 14]: 11%

Compound: CCCCCCCCCCCCc1ccc(S(=O)(=O)Nc2nnc(CCCCCN(C)c3ccc([N+](=O)[O-])c4nonc34)s2)cc1 [Compound 137, 4-Dodecyl-N-(5-(5-(methyl(7-nitrobenzo[c][1,2,5]oxadiazol-4-yl)amino)pentyl)-1,3,4-thiadiazol-2-yl)benzenesulfonamide]
- AKT phosphorylation ([1]; BxPC-3 cells, compared with 104): inhibited AKT phosphorylation in a fashion similar to 104

Compound: CCCCCCCCCC(=O)Nc1ccc(S(=O)(=O)Nc2nnc(C(=O)OCC)s2)cc1 [Compound 123E, Ethyl 5-(4-Decanamidophenylsulfonamido)-1,3,4-thiadiazole-2-carboxylate]
- inhibition at 10 µM [1, 11]: 10%

Compound: Nc1ccc(S(=O)(=O)Nc2ccc(S(=O)(=O)Nc3nnc(S(N)(=O)=O)s3)cc2)cc1 [Compound 456]
- IC50 [3, 12]: 50 µM
- Cell viability (IC50) [2]: N/I

Compound: CCCCCCCCCC(=O)Nc1ccc(S(=O)(=O)Nc2nnc(CO)s2)cc1 [Compound 127, N-(4-(N-(5-(hydroxymethyl)-1,3,4-thiadiazol-2-yl)sulfamoyl)phenyl)decanamide]
- inhibition at 10 µM [1, 11]: 11%

Compound: COc1cc(NS(=O)(=O)c2ccc(Nc3ccco3)cc2)nc(OC)n1 [Compound 444]
- IC50 [3, 12]: 50 µM
- Cell viability (IC50) [2]: N/I

Compound: Nc1ccc(S(=O)(=O)Nc2nnc(CC(=O)O)s2)cc1 [Compound 117, 2-(5-(4-Aminophenylsulfonamido)-1,3,4-thiadiazol-2-yl)acetic Acid]
- inhibition at 10 µM [1, 11]: 23%

Compound: COCCOCCOCC(=O)Nc1ccc(S(=O)(=O)Nc2nncs2)cc1 [Compound 103]
- Apoptosis at 20 μmol/L [8]: 11.4 ± 0.5/ %
- IC50 ([5]; read-out: pAKT inhibition (IC50), Panc-1, Western blots phospho-Ser473-AKT): > 50 µM
- Apoptosis at 20 μmol/L [9]: 18.7 ± 3.1%
- IC50 ([3]; MiaPaca-2, Western blots phospho-Ser473-AKT): > 50 µM

Compound: CC1=NN(C(=O)c2ccccc2)C(=O)C1/N=N/c1ccc(S(=O)(=O)Nc2ncccn2)cc1 (stereo not drawn) [Compound 331]
- Solubility (Solubility): 28.3 µM (≈ 13.1 µg/mL)
- IC50 (HT-29 cells [4]; HT-29 cells, NI = not inhibitory, read-out: Cytotoxicity (IC50 μM)): 14 µM
- IC50 [6]: 11 µM
- IC50 [7]: 20 µM
- Metabolic half life (HT-29 cells [10]): 1.03 h

Compound: CCCCCCCCCC(=O)Nc1ccc(S(=O)(=O)Nc2nnc(C)s2)cc1 [Compound 107, N-(4-(N-(5-Methyl-1,3,4-thiadiazol-2-yl)sulfamoyl)phenyl)decanamide]
- inhibition at 10 µM [1, 11]: 11%

Compound: CCCCCCCCCC(=O)Nc1ccc(S(=O)(=O)Nc2nnc(CC)s2)cc1 [Compound 111, N-(4-(N-(5-Ethyl-1,3,4-thiadiazol-2-yl)sulfamoyl)phenyl)decanamide]
- inhibition at 10 µM [1, 11]: 22%

Compound: Nc1ccc(S(=O)(=O)Nc2nnc(S(N)(=O)=O)s2)cc1 [Compound 131, 5-(4-Aminophenylsulfonamido)-1,3,4-thiadiazole-2-sulfonamide]
- inhibition at 10 µM [1, 14]: 18%

Compound: CCCCCCCCCCCCCCCCc1ccc(S(=O)(=O)Nc2nncs2)cc1 [Compound 157, 4-Hexadecyl-N-(1,3,4-thiadiazol-2-yl)benzenesulfonamide]
- inhibition at 10 µM [1, 11]: 50%

Compound: CCc1nnc(NS(=O)(=O)c2ccc(N)cc2)s1 [Compound 109, 4-Amino-N-(5-ethyl-1,3,4-thiadiazol-2-yl)benzenesulfonamide]
- inhibition at 10 µM [1, 11]: 16%

Compound: COc1cc(NS(=O)(=O)c2ccc(NS(=O)(=O)c3c(C)noc3C)cc2)nc(OC)n1 [Compound 415]
- IC50 (HT-29 cells [4]; [13]): 3.1 µM

Compound: CC(=O)Nc1ccc(S(=O)(=O)Nc2nnc(C(C)(C)C)s2)cc1 [Compound 114, N-(4-(N-(5-tert-Butyl-1,3,4-thiadiazol-2-yl)sulfamoyl)phenyl)acetamide]
- inhibition at 10 µM [1, 11]: 20%

Compound: CC1=NN(C(=O)c2ccc(Cl)cc2)C(=O)C1/N=N/c1ccc(S(=O)(=O)Nc2nnc(C)s2)cc1 (stereo not drawn) [Compound 389]
- IC50 (HT-29 cells [4]; [13]): > 100 µM

Compound: Nc1ccc(S(=O)(=O)Nc2nncs2)cc1 [Compound 100, 4-Amino-N-(1,3,4-thiadiazol-2-yl)benzenesulfonamide]
- cytotoxicity [2]: did not exhibit cytotoxicity
- Cell viability (IC50) [2]: N/I

Compound: CCCCCCCCCC(=O)Nc1ccc(S(=O)(=O)Nc2nnc(C(C)(C)C)s2)cc1 [Compound 115, N-(4-(N-(5-tert-Butyl-1,3,4-thiadiazol-2-yl)sulfamoyl)phenyl)decanamide]
- inhibition at 10 µM [1, 11]: 16%

Compound: CCOC(=O)Cc1nnc(NS(=O)(=O)c2ccc(NC(C)=O)cc2)s1 [Compound 118E, Ethyl 2-(5-(4-Acetamidophenylsulfonamido)-1,3,4-thiadiazol-2-yl)acetate]
- inhibition at 10 µM [1, 11]: 55%

— patent US9320734B2, “Small molecule inhibitors of the pleckstrin homology domain and methods for using same” (Board of Regents, The University of Texas System, priority 2008, dated 2016)
